Reference: paper PMC9103105 (2022)

What was measured:
[1] = tested on: aptamer 1.12.2 (DNA, aptamer) GATCGGGTGTGGGTGGCGTAAAGGGAGCATCGGACA; experiment: fluorescence anisotropy titration; details: 100 mM Na+ (acetate), 10 mM MgCl2, 10 mM CaCl2; 20 mM Tris-acetate pH 8.4, room temperature
[2] = tested on: Mut2 (DNA, aptamer) GATCGGGTGTGGGTGGCGTAAAGGGAGCATCGG; experiment: fluorescence anisotropy titration; details: 100 mM Na+ (acetate), 10 mM MgCl2, 10 mM CaCl2; 20 mM Tris-acetate pH 8.4, room temperature
[3] = tested on: aptamer–ssDNA {6–15} complex (DNA, duplex) GATCGGGTGTGGGTGGCGTAAAGGGAGCATCGGACA/CACCCACACC; experiment: circular dichroism; details: 100 mM Na+ (acetate), 10 mM MgCl2, 10 mM CaCl2; 20 mM Tris-acetate pH 8.4, room temperature; 1 µM complex, up to 10 µM OTA
[4] = tested on: aptamer 1.12.2 (DNA, aptamer) GATCGGGTGTGGGTGGCGTAAAGGGAGCATCGGACA; experiment: fluorescence anisotropy competition; details: 100 mM Na+ (acetate), 10 mM MgCl2, 10 mM CaCl2, 20 mM Tris-acetate pH 8.4, 90 nM aptamer
[5] = tested on: aptamer 1.12.2 (DNA, aptamer) GATCGGGTGTGGGTGGCGTAAAGGGAGCATCGGACA; experiment: ITC; details: 100 mM Na+ (acetate), 10 mM MgCl2, 10 mM CaCl2; 20 mM Tris-acetate pH 8.4, 25 °C; one-site model

Row | KD [1] [nM] | KD [2] [nM] | binding [3] | L50 ([4]; tracer 5 nM OTA-Flu displaced) [nM] | KI ([4]; tracer OTA-Flu displaced) [nM] | KD [5] [nM] | SMILES
1 | 183 ± 14 | 192 | – | – | – | – | C[C@@H]1Cc2c(Cl)cc(C(=O)N[C@@H](Cc3ccccc3)C(=O)NCc3c(O)ccc4c3Oc3cc(O)ccc3C43OC(=O)c4ccccc43)c(O)c2C(=O)O1 (stereo partly drawn)
2 | – | – | no | 106.2 ± 6.4 | 36.3 ± 2.1 | 131 ± 32 | C[C@@H]1Cc2c(Cl)cc(C(=O)N[C@@H](Cc3ccccc3)C(=O)O)c(O)c2C(=O)O1
